Measurements published in PMC11083148, “Structure–Activity Relationship Studies on Highly Functionalized Pyrazole Hydrazones and Amides as Antiproliferative and Antioxidant Agents” (International Journal of Molecular Sciences, 2024).

Assays:
washed platelets [1] = experiment: Platelet aggregation (thrombin-induced, Born's method); format: cell-based; conditions: Homo sapiens, 0.1 U/mL thrombin, mean ± SD, read-out: IC50 Aggregation inhibition
Experimental: (§1) The antioxidant properties of acylhydrazones 10–13 and pyrazolyl amides 14–22 were tested by evaluating their inhibition of platelet aggregation and ROS production (Figure 3, Table S1). In fact, human platelets could represent a fast and low-cost biological model to screen compounds as anticancer, anti-inflammatory, and antiaggregating agents. Moreover, ROS production inhibition, related to human platelet aggregation, could provide a good indication of the anti-inflammatory and antioxidant properties of the newly synthesized compounds [47, 50, 51, 52]. N-acetylcysteine (NAC) and acetyl salicylic acid (ASA) were used as reference drugs for antioxidant and antiaggregant activities, respectively.
(§2) Freshly drawn venous blood from healthy volunteers from “Centro Trasfusionale” (IRCCS Policlinico San Martino, Genoa, Italy) was collected into a 130 mM aqueous trisodium citrate anticoagulant solution (9:1). The donors claimed to not have taken drugs known to interfere with platelet function during the two weeks prior to blood collection and gave their informed consent. Whole blood was centrifuged at 100× g for 20 min to afford platelet-rich plasma that was then spun at 1100× g for 15 min. The obtained pellet was washed once with a pH 5.2 ACD solution (75 mM trisodium citrate, 42 mM citric acid, and 136 mM glucose), centrifuged at 1100× g for 15 min, and then re-suspended in pH 7.4 Hepes buffer (145 mM NaCl, 5 mM KCl, 1 mM MgSO4, 10 mM glucose, and 10 mM HEPES).
Thrombin was purchased from Sigma-Aldrich/Merck Millipore. A DMSO solution of compounds 10–22 was diluted in saline immediately before each experiment and added to the washed platelets (3.0 × 10^8/mL) at 37 °C. After 3 min, 0.1 U/mL thrombin was added, and platelet aggregation was quantified according to Born’s method using a Bio-Data Aggregometer (Bio-Data Corporation, Horsham, PA, USA). The IC50 values were calculated as detailed above.

washed platelets [2] = experiment: ROS assay in platelets (DCFH-DA, thrombin-stimulated); format: cell-based, human; conditions: 0.1 U/mL thrombin, mean ± SD, read-out: IC50 ROS production inhibition
Experimental: as §1, §2
2′,7′-Dichlorofluorescein diacetate (DCFH-DA) and thrombin were purchased from Sigma-Aldrich/Merck Millipore. DMSO solutions of 10–22 were diluted in saline immediately before each experiment. ROS production was quantified by DCFH-DA, a ROS-sensitive probe that yields, upon oxidation, the fluorescent adduct DCF that is trapped inside the cells. Briefly, washed platelets (1.0 × 10^8/mL), pre-incubated with saline solutions of 10–22 for 15 min at 37 °C, were stimulated by 0.1 U/mL thrombin. Incubation was stopped by cooling samples in an ice bath, and then samples were immediately analyzed in a Merck Millipore Bioscience Guava easyCyte flow cytometer (Merk Millipore, Burlington, MA, USA). The reported IC50 values represent the molar concentration of the compounds able to inhibit 50% of the maximal aggregation induced by the agonist and are calculated as the percentage inhibition of the maximal aggregation measured in the presence of the agent compared with the measure in a control sample containing saline, carried out under the same conditions. The IC50 values were extrapolated from nonlinear regression analysis of concentration–response curves (three points) using MS Excel software (Microsoft 365 suite). Each IC50 value is the mean of six independent experiments.

A549 = experiment: MTT assay, antiproliferative activity; format: cell-based; conditions: 48h; for activity at 10 µM: Homo sapiens, read-out: Mean Growth Percentage
Experimental: (§3) Pyrazole acylhydrazones 10–13 and amides 14–22 were tested by MTT assay to evaluate their antiproliferative and cytotoxicity properties against a panel of eight tumor cell lines and normal fibroblasts.
(§4) All reagents were purchased from EuroClone, Milan, Italy). The following cell lines were used for MTT assays: SKOV-3 (ovarian adenocarcinoma, ATCC, Manassas, VA, USA); MCF-7 (breast adenocarcinoma, Biologic Bank and Cell Factory, IRCCS Policlinico San Martino, Genoa, Italy); Hep-G2 (hepatocellular carcinoma, ATCC, Manassas, VA, USA); SK-MEL28 (skin melanoma, Biologic Bank and Cell Factory, IRCCS Policlinico San Martino, Genoa, Italy), GM-6114 (embryonic human fibroblast, ATCC, Manassas, VA, USA); MDA-MB231 (breast adenocarcinoma, Biologic Bank and Cell Factory, IRCCS Policlinico San Martino, Genoa, Italy); HeLa (cervical adenocarcinoma, Biologic Bank and Cell Factory, IRCCS Policlinico San Martino, Genoa, Italy); SK-BR3 (breast andenocarcinoma, Biologic Bank and Cell Factory, IRCCS Policlinico San Martino, Genoa, Italy); A549 (lung carcinoma, Biologic Bank and Cell Factory, IRCCS Policlinico San Martino, Genoa, Italy); HUVEC (Human Umbilical Vein Endothelial Cells, ATCC, Manassas, VA, USA). All cell lines were grown in their medium with 10% FBS, 2 mM Glutamine, and 1% penstrep and incubated at 37 °C in 5% CO2 in a humidified environment. The cell lines were plated in 96-well plates at an adequate number to reach 80–90% confluence at the end of the assay. 16 h after cell plating, a 10 mM DMSO stock solution of the compounds was diluted in growth medium and added at a final working concentration of 10 μM. After 48h of incubation, a 2 mg/mL PBS solution of MTT (3-(4,5-dimethyl-2-thiazolyl)-2,5-diphenyl-2H-tetrazolium bromide) was added (30 μL/well). After 4h, the supernatant was removed, and the Formazan precipitates were dissolved in DMSO (100 μL/well). The 96-well plates were incubated for 20 min, and absorbance was measured at 570 nm using a plate reader. The results are expressed as a percentage ratio over control samples (100%) in which the cells were incubated with the same amount of DMSO but without compounds. Each value is the mean of three independent experiments run in six replicates.

Hep-G2 = experiment: MTT assay, antiproliferative activity; format: cell-based; conditions: for Mean growth percentage at 10 µM: Homo sapiens, HepG2, 48h
Experimental: as §3, §4

MDA-MB231 = experiment: MTT assay, antiproliferative activity; format: cell-based; conditions: for Mean growth percentage at 10 µM: Homo sapiens, MDA-MB-231, 48h
Experimental: as §3, §4

SK-BR3 = experiment: MTT assay, antiproliferative activity; format: cell-based; conditions: for Mean growth percentage at 10 µM: Homo sapiens, SK-BR-3, 48h
Experimental: as §3, §4

GM-6114 = experiment: MTT assay, cytotoxicity on normal fibroblasts; format: cell-based; conditions: human, 48 h, 10 µM
MCF7 = experiment: MTT assay, antiproliferative activity; format: cell-based; conditions: 10 µM, 48h; for mean growth percentage (cell growth remaining vs control) at 10 µM: Homo sapiens
Experimental: as §3, §4
(§5) Each IC50 value is the mean of three independent experiments run in duplicate.

SKMEL28 = experiment: MTT assay, antiproliferative activity; format: cell-based; conditions: 48h; for Mean growth percentage at 10 µM: Homo sapiens, SK-MEL-28, 10 µM
Experimental: as §3, §4, §5

SKOV3 = experiment: MTT assay, antiproliferative activity; format: cell-based; conditions: 48h; for Mean growth percentage at 10 µM: Homo sapiens, SK-OV-3, 10 µM
Experimental: as §3, §4, §5

HeLa = experiment: MTT assay, antiproliferative activity; format: cell-based; conditions: 10 µM, 48h; for activity at 10 µM: Homo sapiens, read-out: Mean Growth Percentage
Experimental: as §3, §4, §5

| IC50 (washed platelets [1]) [µM] | IC50 (washed platelets [2]; Homo sapiens, Platelet) [µM] | SMILES | activity at 10 µM (A549) [%] | Mean growth percentage at 10 µM (Hep-G2) [%] | Mean growth percentage at 10 µM (MDA-MB231) [%] | Mean growth percentage at 10 µM (SK-BR3) [%] | Mean Growth Percentage (GM-6114) [%] | mean growth percentage (cell growth remaining vs control) at 10 µM (MCF7) [%] | Mean growth percentage at 10 µM (SKMEL28) [%] | Mean growth percentage at 10 µM (SKOV3) [%] | activity at 10 µM (HeLa) [%] | also measured |
| --- | --- | --- | --- | --- | --- | --- | --- | --- | --- | --- | --- | --- |
| 204 ± 12 | 111 ± 9 | COc1ccc(/C=N/NC(=O)c2c(N)n[nH]c2Nc2ccccc2)cc1 [10a, (E)-3-amino-N′-(4-methoxybenzylidene)-5-(phenylamino)-1H-pyrazole-4-carbohydrazide] | 103 | 115 | 99.1 | 95.5 | 110.40 | 95.1 | 86.7 | 104 | 98.4 | melting point: 227 to 232 °C |
| 129 ± 10 | 113 ± 7 | COc1ccc(/C=N/NC(=O)c2c(N)nn(C)c2Nc2ccccc2)cc1OC [11b, (E)-3-amino-N′-(3,4-dimethoxybenzylidene)-1-methyl-5-(phenylamino)-1H-pyrazole-4-carbohydrazide] | 94.8 | 116 | 85.7 | 86 | 104.95 | 94.8 | 93 | 100 | 99.5 |  |
| 841 ± 43 | 148 ± 13 | COc1ccc(/C=N/NC(=O)c2c(N)nn(C)c2Nc2ccccc2)cc1Oc1ccccc1 [11c, (E)-3-amino-N′-(4-methoxy-3-phenoxybenzylidene)-1-methyl-5-(phenylamino)-1H-pyrazole-4-carbohydrazide] | 91.7 | 113 | 93.4 | 83.1 | 105.27 | 84.5 | 87.6 | 110 | 101 |  |
| 265 ± 23 | 113 ± 7 | COc1ccc(/C=N/NC(=O)c2c(Nc3ccccc3)nn(C)c2N)cc1 [12a, (E)-5-amino-N′-(4-methoxybenzylidene)-1-methyl-3-(phenylamino)-1H-pyrazole-4-carbohydrazide] | 97.1 | 111 | 97.9 | 95 | 100.38 | 88.5 | 76.2 | 102 | 94.8 |  |
| 187 ± 16 | 106 ± 9 | COc1ccc(/C=N/NC(=O)c2c(Nc3ccccc3)nn(C)c2N)cc1OC [12b, (E)-5-amino-N′-(3,4-dimethoxybenzylidene)-1-methyl-3-(phenylamino)-1H-pyrazole-4-carbohydrazide] | 95.3 | 92.7 | 91.7 | 94.2 | 99.78 | 101 | 73.3 | 98.6 | 92.8 | melting point: 104 to 106 °C |
| 331 ± 14 | 193 ± 16 | COc1ccc(/C=N/NC(=O)c2c(Nc3ccccc3)nn(C)c2N)cc1Oc1ccccc1 [12c, (E)-5-amino-N′-(4-methoxy-3-phenoxybenzylidene)-1-methyl-3-(phenylamino)-1H-pyrazole-4-carbohydrazide] | 98.5 | 111 | 100 | 82.1 | 104.08 | 88.3 | 94.6 | 104 | 85.2 |  |
| 883 ± 39 | 213 ± 17 | COc1ccc(/C=N/NC(=O)c2c(Nc3ccccc3)nn(CC(O)c3ccccc3)c2N)cc1 (centres unmarked) [13a, (E)-5-amino-1-(2-hydroxy-2-phenylethyl)-N′-(4-methoxybenzylidene)-3-(phenylamino)-1H-pyrazole-4-carbohydrazide] | 94.5 | 85.9 | 96.4 | 91.8 | 99.43 | 81 | 81.8 | 93.8 | 83.7 |  |
| 438 |  | CC(=O)Oc1ccccc1C(=O)O [ASA, acetyl salicylic acid, reference compound] |  |  |  |  |  |  |  |  |  |  |
|  |  | N.N.[Cl][Pt][Cl] [CisPt, cisplatin, reference compound] |  |  |  |  |  |  |  |  |  | Mean Growth Percentage (A549; 10 µM): 59.09%; Mean Growth Percentage (Hep-G2; 10 µM, 48h): 38.07%; Mean Growth Percentage (MDA-MB231; 10 µM, 48h): 86.07%; Mean Growth Percentage (SK-BR3; 10 µM, 48h): 70.59%; Mean Growth Percentage (MCF7): 72.74%; Mean Growth Percentage (SKMEL28; 10 µM): 44.40%; Mean Growth Percentage (SKOV3; 10 µM): 36.83%; Mean Growth Percentage (HeLa): 29.33% |
|  |  | CC(=O)N[C@@H](CS)C(=O)O [NAC, N-acetylcysteine, reference compound] |  |  |  |  |  |  |  |  |  | IC50 (washed platelets [2]): 872 µM |
